Source: EP4471048A1, “PEPTIDE INHIBITORS OF INTERLEUKIN-23 RECEPTOR” (Zealand Pharma A/S, priority 2023, dated 2024)
*1 amine or outer side, *2 acyl side, *3 side chain or, on linkers, in order; H or OH if unused. Where a SMILES comes first, the peptide text is derived from it. Bridges are numbered along the chain shown (N, C = ends). [ ]: non-standard residue; d: D form. hAad = O=C([C@H](CCCCC(=O)[*:3])N[*:1])[*:2]; 2Nal = N[C@@H](Cc1ccc2ccccc2c1)C(=O)O; AEF = NCCOc1ccc(C[C@H](N)C(=O)O)cc1; X1 = O=C(Cc1ccc(CN[*:1])cc1)[*:2]; 3Pal = N[C@@H](Cc1cccnc1)C(=O)O; αMeL = CC(C)C[C@](C)(N)C(=O)O; CH2COCH2 = O=C(C[*:1])C[*:2]; NMeS = CN[C@@H](CO)C(=O)O; dDab = NCC[C@@H](N)C(=O)O; Dab = NCC[C@H](N)C(=O)O

Target: T1, human IL-23R (Homo sapiens, UniProt Q5VWK5)
T1 sequence (Q5VWK5 22-629): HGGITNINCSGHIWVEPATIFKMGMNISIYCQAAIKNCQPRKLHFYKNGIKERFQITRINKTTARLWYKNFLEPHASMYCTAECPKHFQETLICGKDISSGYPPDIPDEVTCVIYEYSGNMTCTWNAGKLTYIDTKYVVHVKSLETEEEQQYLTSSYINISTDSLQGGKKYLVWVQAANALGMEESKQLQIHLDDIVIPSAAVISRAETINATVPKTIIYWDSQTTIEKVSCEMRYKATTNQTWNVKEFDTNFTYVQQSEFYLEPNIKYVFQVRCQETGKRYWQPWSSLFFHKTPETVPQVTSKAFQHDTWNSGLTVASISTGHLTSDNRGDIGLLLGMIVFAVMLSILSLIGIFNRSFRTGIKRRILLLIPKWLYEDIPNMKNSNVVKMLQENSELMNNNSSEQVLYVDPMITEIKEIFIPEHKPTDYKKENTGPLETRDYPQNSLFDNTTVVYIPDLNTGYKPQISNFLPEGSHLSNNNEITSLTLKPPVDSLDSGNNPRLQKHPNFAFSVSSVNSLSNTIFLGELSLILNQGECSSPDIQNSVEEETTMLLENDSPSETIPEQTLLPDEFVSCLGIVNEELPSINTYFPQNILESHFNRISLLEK
Experiment: biochemical
Details: for Emax: read-out: % displacement (hIL-23R NIuc)
Summary of the method: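 BRET displacement of a TAMRA-labelled reference compound from N-terminal Nanoluc-IL-23R fusion protein in membranes from stably transfected HEK293 cells. Incubation 2 h at room temperature, then Nanoluc substrate was added and the TAMRA/Nanoluc ratio read. IC50 and maximal displacement came from 4-parameter logistic fits.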

Row | SMILES | IC50 [nM] | Emax [%] | % displacement (hIL-23R NIuc) [%]
1 | CC[C@H](C)[C@@H]1NC(=O)[C@@H]2CCCCNC(=O)CC[C@@H](C(=O)NCCCCCCc3cccnc3)NC(=O)[C@](C)(C(C)C)NC(=O)[C@H](Cc3ccc4ccccc4c3)NC(=O)[C@H](Cc3ccc(OCCN)cc3)NC(=O)[C@H](CCC(=O)N2)NC(=O)[C@H](CCC(N)=O)NC(=O)[C@H](Cc2c[nH]c3ccccc23)NC(=O)[C@H](C(C)C)NC1=O [Compound 29, K(1c)(6c)^†IVWQE(6c)[Y(2-aminoethoxy)][2-Nal][2-Me-Val]E(1c)-[NH-6-(pyridin-3-yl)hexanyl]] | 480 | 95 | 
2 | CNC(=O)[C@H](Cc1cccnc1)NC(=O)[C@H](CCN)NC(=O)[C@@H]1CCCNC(=O)CC[C@@H]2NC(=O)CC[C@H](NC(=O)[C@H](CCC(N)=O)NC(=O)[C@H](Cc3c[nH]c4ccccc34)NC(=O)[C@H]([C@@H](C)O)NC2=O)C(=O)N[C@@H](Cc2ccc(OCCN)cc2)C(=O)N[C@@H](Cc2ccc3ccccc3c2)C(=O)N[C@@](C)(CC(C)C)C(=O)N1 [Compound 40, E(1c)(6c)^†TWQE(6c)[Y(2-aminoethoxy)][2-Nal][2-Me-Leu][Orn](1c)[Dab][3-(3-Pyridyl)-Ala]-[NHMe]] |  | 100 | 
3 | CC(C)C[C@]1(C)NC(=O)[C@H](Cc2ccc3ccccc3c2)NC(=O)[C@H](Cc2ccc(OCCN)cc2)NC(=O)[C@@H]2CC(=O)N[C@H](CCNC(=O)CCCC[C@@H](C(=O)N[C@@H](CCN)C(=O)N[C@@H](Cc3cccnc3)C(N)=O)NC1=O)C(=O)N[C@@H]([C@@H](C)O)C(=O)N[C@@H](C(C)C)C(=O)N[C@@H](Cc1c[nH]c3ccccc13)C(=O)N[C@@H](CCC(N)=O)C(=O)N2 [Compound 9, [{d}Dab](1c)(6c)^†TVWQD(6c)[Y(2-aminoethoxy)][2-Nal][2-Me-Leu][2-Amino-6-carboxyhexanoyl](1 c)[Dab][3-(3-Pyridyl)-Ala]-[NH2]] ([dDab]TVWQD[AEF][2Nal][αMeL][hAad][Dab][3Pal]-NH2; lactam 1-10, N-6) | 0.52 |  | 103
4 | COc1ccc(C[C@@H]2NC(=O)[C@@H]3CCC(=O)N[C@@H](CCCCNC(=O)CC[C@@H](C(=O)N[C@@H](CCCCNC(=O)CCc4ccccn4)C(N)=O)NC(=O)[C@](C)(CC(C)C)NC(=O)[C@H](Cc4ccc5ccccc5c4)NC2=O)C(=O)N[C@@H]([C@@H](C)O)C(=O)N[C@@H](C(C)C)C(=O)N[C@@H](Cc2c[nH]c4ccccc24)C(=O)N[C@@H](CCC(N)=O)C(=O)N3)cc1 [Compound 49, K(1c)(6c)^†TVWQE(6c)[Y(Me)][2-Nal][2-Me-Leu]E(1c)[K(2-pyridylpropionyl)]-[NH2]] | 820 | 96 | 
5 | COc1ccc(C[C@@H]2NC(=O)[C@@H]3CCC(=O)N[C@@H](CCCCNC(=O)CC[C@@H](C(=O)N[C@@H](CCCCNC(=O)CCc4cccnc4)C(N)=O)NC(=O)[C@](C)(CC(C)C)NC(=O)[C@H](Cc4ccc5ccccc5c4)NC2=O)C(=O)N[C@@H]([C@@H](C)O)C(=O)N[C@@H](C(C)C)C(=O)N[C@@H](Cc2c[nH]c4ccccc24)C(=O)N[C@@H](CCC(N)=O)C(=O)N3)cc1 [Compound 52, K(1c)(6c)^†TVWQE(6c)[Y(Me)][2-Nal][2-Me-Leu]E(1c)[K(3-pyridylpropionyl)]-[NH2]] | 120 | 101 | 
6 | CC[C@H](C)[C@@H]1NC(=O)[C@@H]2CCCCNC(=O)CC[C@@H](C(=O)NCCCCc3cccnc3)NC(=O)[C@](C)(C(C)C)NC(=O)[C@H](Cc3ccc4ccccc4c3)NC(=O)[C@H](Cc3ccc(OCCN)cc3)NC(=O)[C@H](CCC(=O)N2)NC(=O)[C@H](CCC(N)=O)NC(=O)[C@H](Cc2c[nH]c3ccccc23)NC(=O)[C@H](C(C)C)NC1=O [Compound 28, K(1c)(6c)^†IVWQE(6c)[Y(2-aminoethoxy)][2-Nal][2-Me-Val]E(1c)-[NH-4-(pyridin-3-yl)butanyl]] | 200 |  | 97
7 | COc1ccc(C[C@@H]2NC(=O)[C@@H]3CCC(=O)N[C@@H](CCCCNC(=O)CC[C@@H](C(=O)N[C@@H](CCCCNC(=O)Cc4cccnc4)C(N)=O)NC(=O)[C@](C)(CC(C)C)NC(=O)[C@H](Cc4ccc5ccccc5c4)NC2=O)C(=O)N[C@@H]([C@@H](C)O)C(=O)N[C@@H](C(C)C)C(=O)N[C@@H](Cc2c[nH]c4ccccc24)C(=O)N[C@@H](CCC(N)=O)C(=O)N3)cc1 [Compound 51, K(1c)(6c)^†TVWQE(6c)[Y(Me)][2-Nal][2-Me-Leu]E(1c)[K(3-pyridylacetyl)]-[NH2]] | 300 | 102 | 

Results, then the compound that gave them:

Row | IC50 [nM] | Emax [%] | % displacement (hIL-23R NIuc) [%] | SMILES
8 | 0.052 | 100 |  | CNC(=O)[C@H](Cc1cccnc1)NC(=O)[C@H](Cc1ccccn1)NC(=O)[C@@H]1CCC(=O)NCCCC[C@@H]2NC(=O)CC[C@H](NC(=O)[C@H](CCC(N)=O)NC(=O)[C@H](Cc3c[nH]c4ccccc34)NC(=O)CCNC2=O)C(=O)N[C@@H](Cc2ccc(OCCN)cc2)C(=O)N[C@@H](Cc2ccc3ccccc3c2)C(=O)N[C@@](C)(CC(C)C)C(=O)N1 [Compound 88, K(1c)(6c)^†[3-Aminopropanoyl]WQE(6c)[Y(2-aminoethoxy)][2-Nal][2-Me-Leu]E(1 c)[3-(2-Pyridyl)-Ala][3-(3-Pyridyl)-Ala]-[NHMe]]
9 | 3.5 |  | 102 | CC(C)C[C@]1(C)NC(=O)[C@H](Cc2ccc3ccccc3c2)NC(=O)[C@H](Cc2ccc(OCCN)cc2)NC(=O)[C@@H]2CSCC(=O)CSC[C@H](NC(=O)[C@H](CO)N(C)C(=O)Cc3ccc(cc3)CNC(=O)CC[C@@H](C(=O)N[C@@H](CCN)C(N)=O)NC1=O)C(=O)N[C@@H](Cc1c[nH]c3ccccc13)C(=O)N[C@@H](CCC(N)=O)C(=O)N2 [Ref 141, [4-Aminomethyl-phenylacetyl](1c)*[N-Me-Ser]C(2a)WQC(2a)[Y(2-aminoethoxy)][2-Nal][2-Me-Leu]E(1c)[Dab]-[NH2], reference compound] ([X1][NMeS]CWQC[AEF][2Nal][αMeL]E[Dab]-NH2; linker 3-6 via CH2COCH2; lactam N-10)
10 | 11 | 101 |  | CNC(=O)[C@H](Cc1cccnc1)NC(=O)[C@H](CCN)NC(=O)[C@@H]1CCC(=O)N[C@H]2CCNC(=O)CC[C@H](NC(=O)[C@H](CCC(N)=O)NC(=O)[C@H](Cc3c[nH]c4ccccc34)NC(=O)CNC2=O)C(=O)N[C@@H](Cc2ccc(OCCN)cc2)C(=O)N[C@@H](Cc2ccc3ccccc3c2)C(=O)N[C@@](C)(CC(C)C)C(=O)N1 [Compound 105, [iso-Dab](1c)^†(6c)GWQE(6c)[Y(2-aminoethoxy)][2-Nal][2-Me-Leu]E(1c)[Dab][3-(3-Pyridyl)-Ala]-[NHMe]]
11 | 3 |  | 100 | CC[C@H](C)[C@@H]1NC(=O)[C@@H]2CCCCNC(=O)CC[C@@H](C(=O)N[C@@H](CCN)C(=O)N[C@@H](Cc3cncnc3)C(=O)NC)NC(=O)[C@](C)(CC(C)C)NC(=O)[C@H](Cc3ccc4ccccc4c3)NC(=O)[C@H](Cc3ccc(OCCN)cc3)NC(=O)[C@H](CCC(=O)N2)NC(=O)[C@H](CCC(N)=O)NC(=O)[C@H](Cc2c[nH]c3ccccc23)NC(=O)[C@H](C(C)C)NC1=O [Compound 78, K(1c)(6c)^†IVWQE(6c)[Y(2-aminoethoxy)][2-Nal][2-Me-Leu]E(1c)[Dab][3-(3,5-Pyrimidyl)-Ala]-[NHMe]]
12 | 3.7 | 99 |  | CNC(=O)[C@H](Cc1cccnc1)NC(=O)[C@H](CCN)NC(=O)[C@@H]1CCC(=O)NCC[C@@H]2NC(=O)CC[C@H](NC(=O)[C@H](CCC(N)=O)NC(=O)[C@H](Cc3c[nH]c4ccccc34)NC2=O)C(=O)N[C@@H](Cc2ccc(OCCN)cc2)C(=O)N[C@@H](Cc2ccc3ccccc3c2)C(=O)N[C@@](C)(CC(C)C)C(=O)N1 [Compound 94, [Dab](1c)(6c)^†WQE(6c)[Y(2-aminoethoxy)][2-Nal][2-Me-Leu]E(1c)[Dab][3-(3-Pyridyl)-Ala]-[NHMe]]
13 | 4.5 | 97 |  | CNC(=O)[C@H](Cc1cccnc1)NC(=O)[C@H](CCN)NC(=O)[C@@H]1CCC(=O)N[C@H]2CCCCNC(=O)CC[C@H](NC(=O)[C@H](CCC(N)=O)NC(=O)[C@H](Cc3c[nH]c4ccccc34)NC2=O)C(=O)N[C@@H](Cc2ccc(OCCN)cc2)C(=O)N[C@@H](Cc2ccc3ccccc3c2)C(=O)N[C@@](C)(CC(C)C)C(=O)N1 [Compound 102, [iso-Lys](1c)^t(6c)WQE(6c)[Y(2-aminoethoxy)][2-Nal][2-Me-Leu]E(1c)[Dab][3-(3-Pyridyl)-Ala]-[NHMe]] (KWQE[AEF][2Nal][αMeL]E[Dab][3Pal]-NHMe; lactam 1-4, N-8)
14 | 210 | 98 |  | COc1ccc(C[C@@H]2NC(=O)[C@@H]3CCC(=O)N[C@@H](CCCCNC(=O)CC[C@@H](C(=O)N[C@@H](CCCCNC(=O)c4cncnc4)C(N)=O)NC(=O)[C@](C)(CC(C)C)NC(=O)[C@H](Cc4ccc5ccccc5c4)NC2=O)C(=O)N[C@@H]([C@@H](C)O)C(=O)N[C@@H](C(C)C)C(=O)N[C@@H](Cc2c[nH]c4ccccc24)C(=O)N[C@@H](CCC(N)=O)C(=O)N3)cc1 [Compound 56, K(1c)(6c)^†TVWQE(6c)[Y(Me)][2-Nal][2-Me-Leu]E(1c)[K(3,5-pyrimidine)]-[NH2]]
